The values that follow come from patent US9982017B2, “Synthetic apelin mimetics for the treatment of heart failure” (priority 2012, dated 2018).

Where a SMILES comes first, the peptide text is derived from it. Bridges are numbered along the chain shown (N, C = ends). [ ]: non-standard residue; d: D form. The star is where a group is joined. Myristoyl = CCCCCCCCCCCCCC(=O)*; pGlu = O=C1CC[C@@H](C(=O)O)N1; d(hCys) = N[C@H](CCS)C(=O)O; hCys = N[C@@H](CCS)C(=O)O; Nle = CCCC[C@H](N)C(=O)O; AEEA = NCCOCCOCC(=O)O

As a reminder, the half-life is the time in which the quantity being followed falls by half.

The nature of this data set: in vitro. Conditions: rat, not told, Surrogate activity-based Plasma stability t½.

Description: The slope of this line, k, was determined by linear regression (Microsoft Excel). • Stability half-life was then calculated by the formula, t ½=0.693÷k Surrogate Activity-Based Plasma Stability Assay:
The calcium flux protocol described above was followed, with the following changes. The peptides were also incubated with 5% rat plasma (Bioreclamation # [sequence]-M, Na Heparin-treated). Readings were taken at time points t0 and t24 hrs, after incubation in a 37° C. tissue culture incubator. Peptide plasma half-life in minutes was estimated by calculating the following:
2) Calculate slope of value above and

Turning to `CCCC[C@@H]1NC(=O)[C@@H]2CCCN2C(=O)CNC(=O)[C@H](CCCCN)NC(=O)[C@H](Cc2c[nH]cn2)NC(=O)[C@@H](NC(=O)[C@H](CC(C)C)NC(=O)[C@H](CCCNC(=N)N)NC(=O)[C@@H]2CCCN2C(=O)[C@H](CCCNC(=N)N)NC(=O)[C@@H]2CCC(=O)N2)CSSC[C@@H](C(=O)N[C@@H](Cc2c[nH]cn2)C(=O)O)NC1=O` [Example 48, pE-R-P-R-L-C-H-K-G-P-Nle-C-H-OH] ([pGlu]RPRLCHKGP[Nle]CH-OH; disulfide 6-12), the half-life worked out at 9.11 h.
In the case of `CCCC[C@@H]1NC(=O)[C@@H]2CCCN2C(=O)CNC(=O)[C@H](CCCCN)NC(=O)[C@H](Cc2c[nH]cn2)NC(=O)[C@@H](NC(=O)[C@H](CC(C)C)NC(=O)[C@H](CCCNC(=N)N)NC(=O)[C@@H]2CCCN2C(=O)[C@H](CCCNC(=N)N)NC(=O)[C@@H]2CCC(=O)N2)CSSC[C@@H](C(=O)N[C@@H](CCC(=O)O)C(=O)O)NC1=O` [Example 49, pE-R-P-R-L-C-H-K-G-P-Nle-C-E-OH] ([pGlu]RPRLCHKGP[Nle]CE-OH; disulfide 6-12), the half-life was greater than 16.7 h.
The compound `CCCC[C@@H]1NC(=O)[C@@H]2CCCN2C(=O)CNC(=O)[C@H](CCCCN)NC(=O)[C@H](Cc2c[nH]cn2)NC(=O)[C@@H](NC(=O)[C@H](CC(C)C)NC(=O)[C@H](CCCNC(=N)N)NC(=O)[C@@H]2CCCN2C(=O)[C@H](CCCNC(=N)N)NC(=O)[C@@H]2CCC(=O)N2)CSSC[C@@H](C(=O)O)NC1=O` [Example 50, pE-R-P-R-L-C-H-K-G-P-Nle-C-OH] ([pGlu]RPRLCHKGP[Nle]C-OH; disulfide 6-12) came in with a half-life greater than 16.7 h.
Take `CCCC[C@@H]1NC(=O)[C@@H]2CCCN2C(=O)CNC(=O)[C@H](CCCCN)NC(=O)[C@H](Cc2c[nH]cn2)NC(=O)[C@@H](NC(=O)[C@H](CC(C)C)NC(=O)[C@H](CCCNC(=N)N)NC(=O)[C@@H]2CCCN2C(=O)[C@H](CCCNC(=N)N)NC(=O)[C@@H]2CCC(=O)N2)CSSCC[C@@H](C(=O)N[C@@H](Cc2ccccc2)C(=O)O)NC1=O` [Example 51, pE-R-P-R-L-C-H-K-G-P-Nle-hC-F-OH] ([pGlu]RPRLCHKGP[Nle][hCys]F-OH; disulfide 6-12): the half-life was 10.9 h.
Turning to `CCCC[C@@H]1NC(=O)[C@@H]2CCCN2C(=O)CNC(=O)[C@H](CCCCN)NC(=O)[C@H](Cc2c[nH]cn2)NC(=O)[C@@H](NC(=O)[C@H](CC(C)C)NC(=O)[C@H](CCCNC(=N)N)NC(=O)[C@@H]2CCCN2C(=O)[C@H](CCCNC(=N)N)NC(=O)[C@@H]2CCC(=O)N2)CCSSCC[C@@H](C(=O)N[C@@H](Cc2ccccc2)C(=O)O)NC1=O` [Example 52, pE-R-P-R-L-hC-H-K-G-P-Nle-hC-F-OH] ([pGlu]RPRL[hCys]HKGP[Nle][hCys]F-OH; disulfide 6-12), the half-life amounted to 13 h. The half-life values of the last two compounds are within 1.5-fold of each other.
The compound `CCCC[C@@H]1NC(=O)[C@@H]2CCCN2C(=O)CNC(=O)[C@H](CCCCN)NC(=O)[C@H](Cc2c[nH]cn2)NC(=O)[C@H](NC(=O)[C@H](CC(C)C)NC(=O)[C@H](CCCNC(=N)N)NC(=O)[C@@H]2CCCN2C(=O)[C@H](CCCNC(=N)N)NC(=O)[C@@H]2CCC(=O)N2)CSSC[C@@H](C(=O)N[C@@H](Cc2ccccc2)C(=O)O)NC1=O` [Example 53, pE-R-P-R-L-c-H-K-G-P-Nle-C-F-OH] ([pGlu]RPRL[dC]HKGP[Nle]CF-OH; disulfide 6-12) gave a half-life greater than 16.7 h.
Regarding `CCCC[C@@H]1NC(=O)[C@@H]2CCCN2C(=O)CNC(=O)[C@H](CCCCN)NC(=O)[C@H](Cc2c[nH]cn2)NC(=O)[C@@H](NC(=O)[C@H](CC(C)C)NC(=O)[C@H](CCCNC(=N)N)NC(=O)[C@@H]2CCCN2C(=O)[C@H](CCCNC(=N)N)NC(=O)[C@@H]2CCC(=O)N2)CSSCC[C@H](C(=O)N[C@@H](Cc2ccccc2)C(=O)O)NC1=O` [Example 54, pE-R-P-R-L-C-H-K-G-P-Nle-(D-hC)-F-OH] ([pGlu]RPRLCHKGP[Nle][d(hCys)]F-OH; disulfide 6-12), the half-life was greater than 16.7 h.
In the case of `CCCC[C@@H]1NC(=O)[C@@H]2CCCN2C(=O)CNC(=O)[C@H](CCCCN)NC(=O)[C@H](Cc2c[nH]cn2)NC(=O)[C@H](NC(=O)[C@H](CC(C)C)NC(=O)[C@H](CCCNC(=N)N)NC(=O)[C@@H]2CCCN2C(=O)[C@H](CCCNC(=N)N)NC(=O)[C@@H]2CCC(=O)N2)CCSSCC[C@H](C(=O)N[C@@H](Cc2ccccc2)C(=O)O)NC1=O` [Example 55, pE-R-P-R-L-(D-hC)-H-K-G-P-Nle-(D-hC)-F-OH] ([pGlu]RPRL[d(hCys)]HKGP[Nle][d(hCys)]F-OH; disulfide 6-12), the half-life is greater than 16.7 h.
In turn, `CCCC[C@@H]1NC(=O)[C@@H]2CCCN2C(=O)CNC(=O)[C@H](CCCCN)NC(=O)[C@H](Cc2c[nH]cn2)NC(=O)[C@@H](NC(=O)[C@H](CC(C)C)NC(=O)[C@H](CCCNC(=N)N)NC(=O)[C@@H]2CCCN2C(=O)[C@H](CCCNC(=N)N)NC(=O)[C@@H]2CCC(=O)N2)CSSC[C@H](C(=O)N[C@@H](Cc2ccccc2)C(=O)O)NC1=O` [Example 56, pE-R-P-R-L-C-H-K-G-P-Nle-c-F-OH] ([pGlu]RPRLCHKGP[Nle][dC]F-OH; disulfide 6-12) yielded a half-life greater than 16.7 h.
Compound `CCCC[C@@H]1NC(=O)[C@@H]2CCCN2C(=O)CNC(=O)[C@H](CCCCN)NC(=O)[C@H](Cc2c[nH]cn2)NC(=O)[C@H](NC(=O)[C@H](CC(C)C)NC(=O)[C@H](CCCNC(=N)N)NC(=O)[C@@H]2CCCN2C(=O)[C@H](CCCNC(=N)N)NC(=O)[C@@H]2CCC(=O)N2)CSSC[C@H](C(=O)N[C@@H](Cc2ccccc2)C(=O)O)NC1=O` [Example 57, pE-R-P-R-L-c-H-K-G-P-Nle-c-F-OH] ([pGlu]RPRL[dC]HKGP[Nle][dC]F-OH; disulfide 6-12) came in with a half-life greater than 16.7 h.
Turning to `CCCCCCCCCCCCCC(=O)NCCOCCOCC(=O)NCCOCCOCC(=O)N[C@@H](CCC(N)=O)C(=O)N[C@@H](CCCNC(=N)N)C(=O)N1CCC[C@H]1C(=O)N[C@@H](CCCNC(=N)N)C(=O)N[C@@H](CC(C)C)C(=O)N[C@H]1CSSC[C@@H](C(=O)N[C@H](Cc2ccccc2)C(=O)O)NC(=O)[C@H](CCCC)NC(=O)[C@@H]2CCCN2C(=O)CNC(=O)[C@H](CCCCN)NC(=O)[C@H](Cc2c[nH]cn2)NC1=O` [Example 58, Myristoyl-O2Oc-O2Oc-Q-R-P-R-L-C-H-K-G-P-Nle-C-f-OH] ({Myristoyl-AEEA-AEEA}-QRPRLCHKGP[Nle]C[dF]-OH; disulfide 6-12), the half-life is greater than 16.7 h.
The compound `CCCCCCCCCCCCCC(=O)NCCOCCOCC(=O)NCCOCCOCC(=O)NCCOCCOCC(=O)N[C@@H](CCC(N)=O)C(=O)N[C@@H](CCCNC(=N)N)C(=O)N1CCC[C@H]1C(=O)N[C@@H](CCCNC(=N)N)C(=O)N[C@@H](CC(C)C)C(=O)N[C@H]1CSSC[C@@H](C(=O)N[C@H](Cc2ccccc2)C(=O)O)NC(=O)[C@H](CCCC)NC(=O)[C@@H]2CCCN2C(=O)CNC(=O)[C@H](CCCCN)NC(=O)[C@H](Cc2c[nH]cn2)NC1=O` [Example 59, Myristoyl-O2Oc-O2Oc-O2Oc-Q-R-P-R-L-C-H-K-G-P-Nle-C-f-OH] ({Myristoyl-AEEA-AEEA-AEEA}-QRPRLCHKGP[Nle]C[dF]-OH; disulfide 6-12) returned a half-life greater than 16.7 h.
Then `CCCCCCCCCCCCCC(=O)NCCOCCOCC(=O)NCCOCCOCC(=O)NCCOCCOCC(=O)NCCOCCOCC(=O)N[C@@H](CCC(N)=O)C(=O)N[C@@H](CCCNC(=N)N)C(=O)N1CCC[C@H]1C(=O)N[C@@H](CCCNC(=N)N)C(=O)N[C@@H](CC(C)C)C(=O)N[C@H]1CSSC[C@@H](C(=O)N[C@H](Cc2ccccc2)C(=O)O)NC(=O)[C@H](CCCC)NC(=O)[C@@H]2CCCN2C(=O)CNC(=O)[C@H](CCCCN)NC(=O)[C@H](Cc2c[nH]cn2)NC1=O` [Example 60, Myristoyl-O2Oc-O2Oc-O2Oc-O2Oc-Q-R-P-R-L-C-H-K-G-P-Nle-C-f-OH] ({Myristoyl-AEEA-AEEA-AEEA-AEEA}-QRPRLCHKGP[Nle]C[dF]-OH; disulfide 6-12), with greater than 16.7 h; and `CCCCCCCCCCCCCC(=O)NCCCC[C@@H]1NC(=O)[C@H](Cc2c[nH]cn2)NC(=O)[C@@H](NC(=O)[C@H](CC(C)C)NC(=O)[C@H](CCCNC(=N)N)NC(=O)[C@@H]2CCCN2C(=O)[C@H](CCCNC(=N)N)NC(=O)[C@@H]2CCC(=O)N2)CSSC[C@@H](C(=O)N[C@@H](Cc2ccccc2)C(=O)O)NC(=O)[C@H](CCCC)NC(=O)[C@@H]2CCCN2C(=O)CNC1=O` [Example 61, pE-R-P-R-L-C-H-K(Myristoyl)-G-P-Nle-C-F-OH] ([pGlu]RPRLCHK(Myristoyl)GP[Nle]CF-OH; disulfide 6-12), with 4.33 h; and `CCCC[C@@H]1NC(=O)[C@@H]2CCCN2C(=O)CNC(=O)[C@H](CCCCN)NC(=O)[C@H](Cc2c[nH]cn2)NC(=O)[C@@H](NC(=O)[C@H](CC(C)C)NC(=O)[C@H](CCCNC(=N)N)NC(=O)[C@@H]2CCCN2C(=O)[C@H](CCCNC(=N)N)NC(=O)[C@@H]2CCC(=O)N2)CSSC[C@@H](C(=O)N[C@@H](Cc2ccccc2)C(N)=O)NC1=O` [Example 62, pE-R-P-R-L-C-H-K-G-P-Nle-C-F-NH2] ([pGlu]RPRLCHKGP[Nle]CF-NH2; disulfide 6-12), with greater than 16.7 h.
In the case of `CCCC[C@@H]1NC(=O)[C@@H]2CCCN2C(=O)CNC(=O)[C@H](CCCCN)NC(=O)[C@H](Cc2c[nH]cn2)NC(=O)[C@@H](NC(=O)[C@H](CC(C)C)NC(=O)[C@H](CCCNC(=N)N)NC(=O)[C@@H]2CCCN2C(=O)[C@H](CCCNC(=N)N)NC(=O)[C@@H]2CCC(=O)N2)CSSC[C@@H](C(N)=O)NC1=O` [Example 63, pE-R-P-R-L-C-H-K-G-P-Nle-C-NH2] ([pGlu]RPRLCHKGP[Nle]C-NH2; disulfide 6-12), the half-life was found to be 11.7 h.
Compound `CCCC[C@@H]1NC(=O)[C@@H]2CCCN2C(=O)CNC(=O)[C@H](CCCCN)NC(=O)[C@H](Cc2cnc[nH]2)NC(=O)[C@@H](NC(=O)[C@H](CC(C)C)NC(=O)[C@H](CCCNC(=N)N)NC(=O)[C@@H]2CCCN2C(=O)[C@H](CCCNC(=N)N)NC(=O)[C@@H]2CCC(=O)N2)CSC[C@@H](C(=O)N[C@@H](Cc2ccccc2)C(=O)O)NC1=O` [Example 65, pE-R-P-R-L-C-H-K-G-P-Nle-C-F-OH] registered a half-life of 9.93 h. The half-life values of the last two compounds are within 1.5-fold of each other.
As for `CCCC[C@@H]1NC(=O)[C@@H]2CCCN2C(=O)CNC(=O)[C@H](CCCCN)NC(=O)[C@H](Cc2cnc[nH]2)NC(=O)[C@@H](NC(=O)[C@H](CC(C)C)NC(=O)[C@H](CCCNC(=N)N)NC(=O)[C@@H]2CCCN2C(=O)[C@H](CCCNC(=N)N)NC(=O)[C@@H]2CCC(=O)N2)CSC/C(=N/OCC(=O)NCCNC(=O)COCCOCCNC(=O)CCC(NC(=O)CCCCCCCCCCCCCCCCC(=O)O)C(=O)O)CSC[C@@H](C(=O)N[C@@H](Cc2ccccc2)C(=O)O)NC1=O` (stereo partly drawn) [Example 66], the half-life stood at 9.93 h.
